The structures appear in SMILES notation. Entries after “also recorded” stand apart in the source; their conditions may differ.

In series [1] the test system is histone methylation in Adh cells. As to the kind of experiment: Western blot of methylated histones in Adh cells. Particulars: FIDAS5 treatment. It counts as cell-based, human. As for the experimental part: (§1) 1.5×10^6 cells were lysed in Llaemli-SDS buffer and then sonicated. Total protein concentration was measured by Bradford assay. Total cell lysates were separated by SDS-PAGE and transferred onto nitrocellulose, followed by blocking in 5% (v/v) milk in Tris-buffered saline in Tween 20, probing with the indicated antibodies and visualized by chemiluminescence (Roche). Primary antibodies used were anti-β-Actin (sc-47778), anti-GAPDH (sc-32233) from Santa Cruz: anti-GLDC (ab97625), anti-H3 (ab1791), anti-H3 (dimethylK36) (ab9049), anti-MAT2A (ab77471), anti-MTR (ab9209), anti-H3 (trimethylK79) (ab2621), anti-MTHFR (ab125707), anti-MTAP (ab ab55517) from Abcam; anti-H3(trimethyl K4) (39159), anti-H3(trimethyl K27)(39155), anti-H3(trimethylK36)(61101) and anti-H3(trimethylK9)(39765) from Active Motif; anti-β-catenin (BD610154) from BD Biosciences; anti-SHMT2 (HPA020549) and anti-SAHH (WH0000191M8) from Sigma; anti-Symmetric Di-Methyl Arginine Motif (13222) from CST.
Background: In western blotting, separated proteins are transferred to a membrane and probed.

Series [2] concerns CD166 expression in TS cells. The series is described as follows: CD166 staining of TS cells by flow cytometry. It counts as cell-based, human. Particulars: FIDAS vs DMSO.
Series [3] deals with TS cells (lung TICs). The series is described as follows: Tumor formation in NSG mice after transplantation of pre-treated TS cells. It is filed as in vivo. Particulars: 500,000 TS cells treated 48 h with inhibitor, transplanted into NSG mice, 6 weeks. The source says:
(§2) 5×10^5 single cells were mixed in a 1:1 mixture of serum free DMEM/F12 and Matrigel (BD) and injected subcutaneously into the flanks of 4-6 week old male and female NOD.Cg-Prkdc^scid Il2rg^tm1wjl SzJ (Jackson Laboratories). About 6 weeks later, or when tumor sizes exceed 2 cm in length, mice were sacrificed and tumors harvested for analysis. All animal experiments were approved by the Agency for Science Technology and Research Singapore—Biological Resource Centre. Mice were randomized by sex.
(§3) To evaluate the methionine cycle as a therapeutic target in lung TICs, small molecule inhibitors that target enzymes within this pathway were employed, mimicking the effects of short-term methionine starvation (FIG. 5a). two inhibitors known to perturb methionine cycle activity and cellular methylation levels: 1) MAT2A inhibitor, FIDAS5; and 2) SAHH inhibitor, D9, which is an analog of DZNep. In a manner similar to amino acid starvation studies, TS cells were exposed transiently to the compounds for 48 h in culture and were immediately used for downstream tumorigenesis assays.

Series [4] has as its system TS cells. The series is described as follows: Cell proliferation assay (CellTiter-Glo) of TS cells. It is filed as cell-based, human. Here is the method:
(§4) Cells were seeded into 96-well plates at a density of 2,000 cells/well for TS cells and 500 cells/well for Adh cells. The relative number of viable cells was determined by the quantification of ATP using the CellTiter-Glo Luminescent Cell Viability Assay (Promega) system.
A general note: In ATP-based viability assays light output follows the ATP content of the culture.

Series [5] relates to TS cells. As to the kind of experiment: Orthotopically implanted GFP-expressing TS cells in lungs of NSG mice. It is filed as in vivo. To be noted: orthotopic TS cells, transient treatment for 3 days, 5 weeks post implantation. The text has this:
GFP expressing 1.5×10^6 single TS cells (transduced with PLL3.7 vector) with suspended in tumor sphere media and injected intravenously through tail-vein into 4-6 week old male and female NOD.Cg-Prkdc^scid Il2rg^tm1wjl SWJ (Jackson Laboratories) mice. Mice were continuously monitored and then sacrificed at 5 weeks post injection. Lungs were harvested, fixed in 4% paraformaldehyde and embedded in paraffin for subsequent analysis. Anti-GFP (ab13970) antibody from Abcam and Alexa-Fluor Goat 488 anti-Chicken antibody (A-11039; ThermoFisher) was used to visualize and quantify GFP-positive lesions using immunofluorescence protocol outlined above. Mice were randomized by sex.
Since FIDAS5 appeared to more specifically disrupt the methionine cycle and inhibit cellular methylation activities compared to D9, it was sought to test whether its systemic delivery could impact the tumorigenic potential of TS cells. These highly tumorigenic cells were first subcutaneously implanted into NSG mice and FIDAS5 (40 mg/kg) or corn oil carrier was immediately administered via intraperitoneal injection for three consecutive days. After 6 weeks, mice transiently treated with FIDAS5 produced tumors that were much smaller than carrier-treated controls. […]

In series [6] the test system is TS cells (lung TICs). The series is described as follows: Intraperitoneal administration to NSG mice subcutaneously implanted with lung TICs. Particulars: FIDAS5 40 mg/kg i.p., three consecutive days, after 6 weeks. It counts as in vivo.
Excerpt: as §2
(§5) Since FIDAS5 appeared to more specifically disrupt the methionine cycle and inhibit cellular methylation activities compared to D9, it was sought to test whether its systemic delivery could impact the tumorigenic potential of TS cells. These highly tumorigenic cells were first subcutaneously implanted into NSG mice and FIDAS5 (40 mg/kg) or corn oil carrier was immediately administered via intraperitoneal injection for three consecutive days. After 6 weeks, mice transiently treated with FIDAS5 produced tumors that were much smaller than carrier-treated controls. […] To exclude the possibility of general cytotoxicity associated with the inhibitor on TS cells, TS cell-implanted NSG mice were treated with cisplatin (4 mg/kg), a frontline chemotherapeutic agent that broadly target bulk cancer cells in NSCLC tumors, in the same manner (FIG. 5i). […]

For series [7], the system named is lung patient-derived xenograft (PDX) cells A139, A233. As to the kind of experiment: Patient-derived lung tumor xenografts (PDX) in NSG mice. It is filed as in vivo. Particulars: two PDX lines, FIDAS5 40 mg/kg for three days after implantation, six weeks.
Excerpt: as §2, §5
On the technique in general: Xenograft models place foreign cells or tissue in a host animal.

Another series has as its system Adh cells. The series is described as follows: Proliferation of Adh cells grown in FIDAS5-containing media. It is filed as cell-based, human. Here is the method:
as §4

The subject of series [8] is TS cells. As to the kind of experiment: Apoptosis assay (Annexin V/PI) of inhibitor treated TS cells. It is filed as cell-based, human. To be noted: transient exposure. The text has this: 10^6 cells were stained with FITC Annexin V and PI, and analysed for apoptosis by flow cytometry using an LSRII Cell Analyzer (BD) according to manufacturer's instructions.
In series [9] the test system is histone methylation in TS cells. The series is described as follows: Western blot of methylated histones in TS cells. It counts as cell-based, human. To be noted: TS cells exposed transiently (48 h) to inhibitor. As for the experimental part:
as §1, §3

Series [10] relates to triple-negative breast cancer (TNBC) cells incl. BC2.2. As to the kind of experiment: Sensitivity of triple-negative breast cancer cells to MAT2A inhibition. It counts as cell-based. To be noted: in particular chemotherapy resistant BC2.2.

Regarding `CNc1ccc(/C=C/c2c(F)cccc2Cl)cc1` [FIDAS5], in series [1], the histone methylation marks result is given as “did not demonstrate reduction in histone methylation marks”. Moreover, in series [2], the CD166 expression entry is “loss of CD166 expression”. The tumor-forming ability entry in the series on TS cells (lung TICs) [3] was “severely diminished”. The growth capacity entry in the series with TS cells [4] (TS cells exposed to FIDAS5 for six days, then medium without FIDAS5) was “completely ablated”. Also, in the series on TS cells [4] (TS cells, transient 48 h exposure then complete media), the long-term proliferation ability entry is on record as “did not negatively impact”. Besides, in the series with TS cells [5], the “number of pulmonary lesions” value was “decreased number of pulmonary lesions”. For the same compound, the “tumor size vs carrier-treated controls” value in the series on TS cells (lung TICs) [6] is listed as “much smaller”. Besides, the “xenograft tumors smaller relative to sham-treated mice” value in [7] is given as “at least 6 fold”. Also, in the series with Adh cells, the “proliferation in FIDAS5-containing media” value is given as “far less affected”. In addition, in the series with TS cells [8], the apoptosis result is listed as “did not negatively impact their long-term proliferation ability or trigger apoptosis”. The histone methylation levels result in [9] is recorded as “complete ablation”. The “effect on TNBC cells” value in series [10] was “displayed sensitivity; also recorded: effective”.
